Key:
Type in all cases: cell-based
[1] = biological target: T1, human mineralocorticoid receptor (MR) (Homo sapiens, UniProt P08235); assay: Cellular in vitro assay, GAL4-MR chimera luciferase reporter in CHO K1 cells (inhibitory MR activity); settings: antagonism vs aldosterone; CHO K1 GAL4-MR LBD luciferase reporter
T1 construct: expressed in transfected cells; host or cells: CHO K1
T1 sequence (P08235 734-984 limits assumed): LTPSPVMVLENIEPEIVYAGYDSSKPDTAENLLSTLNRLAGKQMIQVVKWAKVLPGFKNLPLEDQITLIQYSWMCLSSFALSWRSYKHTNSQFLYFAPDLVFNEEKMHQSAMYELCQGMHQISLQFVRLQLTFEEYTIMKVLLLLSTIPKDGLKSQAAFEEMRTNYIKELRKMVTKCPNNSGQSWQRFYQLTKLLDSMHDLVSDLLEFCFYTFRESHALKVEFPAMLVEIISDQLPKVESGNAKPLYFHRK
Excerpt: (§1) 1. Cellular In Vitro Assay to Determine the Inhibitory MR Activity and MR Selectivity Compared with Other Steroid Hormone Receptors
(§2) Antagonists of the human mineralocorticoid receptor (MR) are identified, and the activity of the compounds described herein is quantified with the aid of a recombinant cell line. The cell is originally derived from a hamster ovary epithelial cell (Chinese Hamster Ovary, CHO K1, ATCC: American Type Culture Collection, VA 20108, USA).
(§3) An established chimera system in which the ligand-binding domains of human steroid hormone receptors are fused to the DNA-binding domain of the yeast transcription factor GAL4 is used in this CHO K1 cell line. The GAL4-steroid hormone receptor chimeras produced in this way are cotransfected and stably expressed with a reporter construct in the CHO cells.
(§4) To generate the GAL4-steroid hormone receptor chimeras, the GAL4 DNA-binding domain (amino acids 1-147) from the vector pFC2-dbd (from Stratagene) is cloned with the PCR-amplified ligand-binding domains of the mineralocorticoid receptor (MR, amino acids 734-985), of the progesterone receptor (PR, amino acids 680-933) and of the androgen receptor (AR, amino acids 667-919) into the vector pIRES2 (from Clontech). The reporter construct, which comprises five copies of the GAL4 binding site upstream of a thymidine kinase promoter, leads to expression of firefly luciferase (Photinus pyralis) after activation and binding of the GAL4-steroid hormone receptor chimeras by the respective specific agonists aldosterone (MR), dexamethasone (GR), progesterone (PR) and dihydrotestosterone (AR).
(§5) The MR, PR and AR cells are plated out in medium (Optimem, 2.5% FCS, 2 mM glutamine, 10 mM HEPES) in 96- (or 384- or 1536-)well microtiter plates on the day before the assay and are kept in a cell incubator (96% humidity, 5% v/v CO2, 37° C.). On the day of the assay, the substances to be tested are taken up in the abovementioned medium and added to the cells. About 10 to 30 minutes after addition of the test substances, the respective specific agonists of the steroid hormone receptors are added. After a further incubation time of 5 to 6 hours, the luciferase activity is measured with the aid of a video camera. The measured relative light units as a function of the substance concentration result in a sigmoidal stimulation curve. The IC50 values are calculated with the aid of the GraphPad PRISM computer program (Version 3.02).

[2] = biological target: T2, progesterone receptor (PR) (Homo sapiens, UniProt P06401); assay: Cellular in vitro assay, GAL4-PR chimera luciferase reporter in CHO K1 cells (selectivity); settings: antagonism vs progesterone; CHO K1 GAL4-PR LBD luciferase reporter
T2 construct: of the progesterone receptor (PR, amino acids 680-933); expressed in transfected cells; host or cells: CHO K1
T2 sequence (P06401 680-933): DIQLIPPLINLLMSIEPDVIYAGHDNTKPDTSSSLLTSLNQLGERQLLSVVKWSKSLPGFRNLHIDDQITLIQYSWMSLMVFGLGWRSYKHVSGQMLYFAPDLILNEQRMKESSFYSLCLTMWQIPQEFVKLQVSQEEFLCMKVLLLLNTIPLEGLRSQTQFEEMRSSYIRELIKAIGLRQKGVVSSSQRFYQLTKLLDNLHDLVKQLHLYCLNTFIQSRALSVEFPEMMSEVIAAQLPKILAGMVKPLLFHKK
Excerpt: as §1, §2, §3, §4, §5

androgen receptor (AR) = biological target: T3, androgen receptor (AR) (Homo sapiens, UniProt P10275); assay: Cellular in vitro assay, GAL4-AR chimera luciferase reporter in CHO K1 cells (selectivity); settings: antagonism vs dihydrotestosterone; CHO K1 GAL4-AR LBD luciferase reporter
T3 construct: of the androgen receptor (AR, amino acids 667-919); expressed in transfected cells; host or cells: CHO K1
T3 sequence (P10275 668-920): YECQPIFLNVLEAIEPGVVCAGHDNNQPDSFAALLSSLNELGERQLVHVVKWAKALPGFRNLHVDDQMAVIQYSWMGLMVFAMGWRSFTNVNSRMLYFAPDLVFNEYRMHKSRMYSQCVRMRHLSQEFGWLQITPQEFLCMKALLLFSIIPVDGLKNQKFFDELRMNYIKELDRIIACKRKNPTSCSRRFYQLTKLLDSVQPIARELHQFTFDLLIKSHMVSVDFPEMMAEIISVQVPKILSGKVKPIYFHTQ
Excerpt: as §1, §2, §3, §4, §5

Row | Compound | IC50 [1] | IC50 [2] | IC50 (androgen receptor (AR))
1 | CCC(CCC#N)(c1ccc(Cl)cc1)c1c[nH]c2c(CSC)cccc12 (stereo not shown) [Example 157, 4-(4-Chlorophenyl)-4-{7-[(methylsulfanyl)methyl]-1H-indol-3-yl}hexanonitrile] | 0.018 µM | 2.14 µM | 3.39 µM
2 | CS(=O)(=O)Cc1cccc2c(C(CCCC#N)c3ccc(Cl)cc3)c[nH]c12 (stereo not shown) [Example 70, 5-(4-Chlorophenyl)-5-{7-[(methylsulfonyl)methyl]-1H-indol-3-yl}pentanonitrile] | 0.25 µM | 7.75 µM | 9.66 µM
3 | CCC(CCO)(c1ccc(Cl)cc1)c1c[nH]c2c(C[S+](C)[O-])cccc12 (mixture of isomers) [Example 143, 3-(4-Chlorophenyl)-3-{7-[(methylsulfinyl)methyl]-1H-indol-3-yl}pentan-1-ol] | 0.14 µM | 4.58 µM | 6.44 µM
4 | CSCc1cc(F)cc2c(C(c3ccc(C)cc3)C3CC3C#N)c[nH]c12 (stereo not shown) [Example 260, 2-[{5-Fluoro-7-[(methylsulfanyl)methyl]-1H-indol-3-yl}(4-methylphenyl)methyl]cyclopropane-carbonitrile] | 0.039 µM | 5.23 µM | 9.03 µM
5 | CSCc1cc(F)cc2c(C(CCC#N)c3ccc(Cl)cc3)c[nH]c12 (stereo not shown) [Example 43, 4-(4-Chlorophenyl)-4-{5-fluoro-7-[(methylsulfanyl)methyl]-1H-indol-3-yl}butanonitrile] | 0.078 µM | 1.98 µM | 2.92 µM
6 | CC(c1ccc(Cl)cc1F)(c1c[nH]c2c(CS(C)(=O)=O)cccc12)C1CC1 (single isomer, unassigned) [Example 111-1, 3-[1-(4-Chloro-2-fluorophenyl)-1-cyclopropylethyl]-7-[(methylsulfonyl)methyl]-1H-indole] | 0.03 µM | 4.5 µM | 2.52 µM
7 | CS(=O)(=O)Cc1cc(F)cc2c(C(CCC#N)c3ccc(Cl)cc3Cl)c[nH]c12 (stereo not shown) [Example 63, 4-(2,4-Dichlorophenyl)-4-{5-fluoro-7-[(methylsulfonyl)methyl]-1H-indol-3-yl}butanonitrile] | 0.04 µM | 4.81 µM | 3.76 µM
8 | CSCc1cccc2c(C(CCC#N)c3ccc(Cl)cc3F)c[nH]c12 (single isomer, unassigned) [Example 38-1, 4-(4-Chloro-2-fluorophenyl)-4-{7-[(methylsulfanyl)methyl]-1H-indol-3-yl}butanonitrile] | 0.016 µM | 1.51 µM | 1.12 µM
9 | CSCc1cc(F)cc2c(C3(C4CC4)CCc4cc(F)ccc43)c[nH]c12 (stereo not shown) [Example 94, 3-(1-Cyclopropyl-5-fluoro-2,3-dihydro-1H-inden-1-yl)-5-fluoro-7-[(methylsulfanyl)methyl]-1H-indole] | 0.16 µM | 3.14 µM | 1.6 µM
10 | CCC(CCC#N)(c1ccc(Cl)cc1)c1c[nH]c2c(CS(C)(=O)=O)cccc12 (single isomer, unassigned) [Enantiomer 172-1, 4-(4-Chlorophenyl)-4-{7-[(methylsulfonyl)methyl]-1H-indol-3-yl}hexanonitrile] | 0.007 µM | 4.31 µM | 3.8 µM
11 | C[S+]([O-])Cc1cc(F)cc2c(C(CCC#N)c3ccc(Cl)cc3Cl)c[nH]c12 (mixture of isomers) [Example 82, 4-(2,4-Dichlorophenyl)-4-{5-fluoro-7-[(methylsulfinyl)methyl]-1H-indol-3-yl}butanonitrile] | 0.21 µM | 5.81 µM | 7.53 µM
12 | CS(=O)(=O)Cc1cccc2c(C3(C4CC4)CCOc4cc(F)cc(F)c43)c[nH]c12 (stereo not shown) [Example 219, 3-(4-Cyclopropyl-5,7-difluoro-3,4-dihydro-2H-chromen-4-yl)-7-[(methylsulfonyl)methyl]-1H-indole] | 0.042 µM | 8.12 µM | 2.73 µM
13 | Cc1cc(Cl)ccc1C(CCO)c1c[nH]c2c(CS(C)(=O)=O)cccc12 (stereo not shown) [Example 26, 3-(4-Chloro-2-methylphenyl)-3-{7-[(methylsulfonyl)methyl]-1H-indol-3-yl}propan-1-ol] | 0.05 µM | 2.32 µM | 2.23 µM
14 | CCC(CCO)(c1ccc(Cl)cc1)c1c[nH]c2c(CSC)cccc12 (stereo not shown) [Example 140, 3-(4-Chlorophenyl)-3-{7-[(methylsulfanyl)methyl]-1H-indol-3-yl}pentan-1-ol] | 0.27 µM | 10 µM | 6.6 µM
15 | CS(=O)(=O)Cc1cccc2c(C(c3ccc(C(F)(F)F)cc3)C3CC3(F)F)c[nH]c12 (mixture of isomers) [Example 324, 3-{(2,2-Difluorocyclopropyl)[4-(trifluoromethyl)phenyl]methyl}-7-[(methylsulfonyl)methyl]-1H-indole] | 0.4 µM | 6.9 µM | 
16 | CSCc1cccc2c(C(C)(c3ccc(C(F)(F)F)cc3)C3CC3C#N)c[nH]c12 (stereo not shown) [Example 177, 2-(1-{7-[(Methylsulfanyl)methyl]-1H-indol-3-yl}-1-[4-(trifluoromethyl)phenyl]ethyl)cyclopropanecarbonitrile] | 0.077 µM | 5.78 µM | 1.94 µM
17 | CS(=O)(=O)Cc1cccc2c(C(c3ccc(F)cc3)c3ccc(Cl)cc3)c[nH]c12 (single isomer, unassigned) [Example 114-2, 3-[(4-Chlorophenyl)(4-fluorophenyl)methyl]-7-[(methylsulfonyl)methyl]-1H-indole] | 0.22 µM | 6.55 µM | 1.23 µM
18 | C[S+]([O-])Cc1cccc2c(C(c3ccc(Cl)cc3)c3ccc(Cl)cc3)c[nH]c12 (racemic) [Example 296, 3-[Bis(4-chlorophenyl)methyl]-7-[(methylsulfinyl)methyl]-1H-indole] | 0.21 µM | 4.81 µM | 6.57 µM
19 | CS(=O)(=O)Cc1cccc2c(C(c3ccc(Cl)cc3Cl)C3CC3(F)F)c[nH]c12 (single isomer, unassigned) [Example 325-1-1, 3-[(2,4-Dichlorophenyl)(2,2-difluorocyclopropyl)methyl]-7-[(methylsulfonyl)methyl]-1H-indole] | 0.012 µM | 7.53 µM | 0.52 µM
20 | CS(=O)(=O)Cc1c(F)ccc2c(C(CCC#N)c3ccc(Cl)cc3)c[nH]c12 (stereo not shown) [Example 71, 4-(4-Chlorophenyl)-4-{6-fluoro-7-[(methylsulfonyl)methyl]-1H-indol-3-yl}butanonitrile] | 0.32 µM | 4.47 µM | 3.99 µM
21 | CS(=O)(=O)Cc1cccc2c(C3(C4CC4)CCc4cc(F)ccc43)c[nH]c12 (single isomer, unassigned) [Example 107-1, 3-(1-Cyclopropyl-5-fluoro-2,3-dihydro-1H-inden-1-yl)-7-[(methylsulfonyl)methyl]-1H-indole] | 0.02 µM | 9.16 µM | 2.16 µM
22 | C[S+]([O-])Cc1cccc2c(C(c3c(F)cc(Cl)cc3F)C3CC3)c[nH]c12 (mixture of isomers) [Example 238, 3-[(4-Chloro-2,6-difluorophenyl)(cyclopropyl)methyl]-7-[(methylsulfinyl)methyl]-1H-indole] | 0.19 µM | 10 µM | 

Reference: patent publication US20110201564A1, “SUBSTITUTED 7-SULFANYLMETHYL, 7-SULFINYLMETHYL AND 7-SULFONYLMETHYL INDOLES AND USE THEREOF” (BAYER SCHERING PHARMA AKTIENGESELLSCHAFT, priority 2008, published 2011)
